Assay results as given in ChEMBL document CHEMBL3046260, “Synthesis of benzo[b][1,4]oxazin-3(4H)-ones via smiles rearrangement for antimicrobial activity” (2011).
≈ marks a conversion by molar mass, not a printed value. Calls of active or inactive are those of the source. The rule behind the calls is not given here.

What was measured:
Escherichia coli [1] = test: Microbiostatic activity against Escherichia coli ATCC 25922 after […]; assay type: functional, organism-based
Bacillus spizizenii [2] = test: Microbiostatic activity against Bacillus subtilis subsp. spizizenii ATCC 6633 after 24 hr
Candida albicans [3] = test: Antimicrobial activity against Candida albicans ATCC 76615 after 48 hr by two-fold serial dilution method; assay type: functional; details: ATCC 76615, 48 h
Pseudomonas aeruginosa [4] = test: Antimicrobial activity against Pseudomonas aeruginosa ATCC 27853 after 24 hr by two-fold serial dilution method; assay type: functional; details: ATCC 27853, 24 h
Proteus vulgaris [5] = test: Microbiostatic activity against Proteus vulgaris ATCC 6896 after 24 hr
Staphylococcus aureus [6] = test: Antimicrobial activity against Staphylococcus aureus ATCC 25923 after 24 hr by two-fold serial dilution method; assay type: functional; details: ATCC 25923, 24 h
Staphylococcus aureus [7] = test: Microbiostatic activity against Staphylococcus aureus ATCC 25923 after 24 hr
Candida albicans [8] = test: Microbiostatic activity against Candida albicans ATCC 76615; assay type: functional, organism-based
Bacillus spizizenii [9] = test: Antimicrobial activity against Bacillus subtilis subsp. spizizenii ATCC 6633 after 24 hr by two-fold serial dilution method; assay type: functional; details: ATCC 6633, 24 h
Escherichia coli [10] = test: Antimicrobial activity against Escherichia coli ATCC 25922 after 24 hr by two-fold serial dilution method; assay type: functional; details: ATCC 25922, 24 h
Proteus vulgaris [11] = test: Antimicrobial activity against Proteus vulgaris ATCC 6896 after 24 hr by two-fold serial dilution method; assay type: functional; details: ATCC 6896, 24 h
Aspergillus flavus [12] = test: Microbiostatic activity against Aspergillus flavus ATCC 10124; assay type: functional, organism-based
Pseudomonas aeruginosa [13] = test: Microbiostatic activity against Pseudomonas aeruginosa ATCC 27853 after 24 hr
Aspergillus flavus [14] = test: Antimicrobial activity against Aspergillus flavus ATCC 10124 after 48 hr by two-foldserial dilution method; assay type: functional; details: ATCC 10124, 48 h

SMILES	Activity (Escherichia coli [1])	Activity (Bacillus spizizenii [2])	MIC (Candida albicans [3])	MIC (Pseudomonas aeruginosa [4])	Activity (Proteus vulgaris [5])	MIC (Staphylococcus aureus [6])	Activity (Staphylococcus aureus [7])	Activity (Candida albicans [8])	MIC (Bacillus spizizenii [9])	MIC (Escherichia coli [10])	MIC (Proteus vulgaris [11])	Activity (Aspergillus flavus [12])	Activity (Pseudomonas aeruginosa [13])	MIC (Aspergillus flavus [14])
O=C1COc2cc(F)ccc2N1CC1CCCO1 (stereo not drawn)	Active	Active	256 µg/mL (≈ 1020 µM)	128 µg/mL (≈ 509 µM)	Active	32 µg/mL (≈ 127 µM)	Active	Active	32 µg/mL (≈ 127 µM)	32 µg/mL (≈ 127 µM)	16 µg/mL (≈ 63.7 µM)	Active	Active	
O=C1COc2cc(Cl)ccc2N1Cc1ccccc1	Active	Active	128 µg/mL (≈ 468 µM)	16 µg/mL (≈ 58.5 µM)	Active	64 µg/mL (≈ 234 µM)	Active	Active	32 µg/mL (≈ 117 µM)	64 µg/mL (≈ 234 µM)	64 µg/mL (≈ 234 µM)	Active	Active	128 µg/mL (≈ 468 µM)
O=C1COc2cc(Br)ccc2N1CC1CCCO1 (stereo not drawn)	Active	Active	128 µg/mL (≈ 410 µM)	64 µg/mL (≈ 205 µM)	Active	32 µg/mL (≈ 103 µM)	Active	Active	32 µg/mL (≈ 103 µM)	32 µg/mL (≈ 103 µM)	32 µg/mL (≈ 103 µM)	Active	Active	
CCCCCCN1C(=O)COc2cc(F)ccc21	Active	Active	128 µg/mL (≈ 509 µM)	128 µg/mL (≈ 509 µM)	Active	32 µg/mL (≈ 127 µM)	Active	Active	32 µg/mL (≈ 127 µM)	16 µg/mL (≈ 63.7 µM)	16 µg/mL (≈ 63.7 µM)	Active	Active	128 µg/mL (≈ 509 µM)
O=C1COc2cc(Cl)ccc2N1CC1CCCO1 (stereo not drawn)	Active	Active	128 µg/mL (≈ 478 µM)	64 µg/mL (≈ 239 µM)	Active	32 µg/mL (≈ 120 µM)	Active	Active	32 µg/mL (≈ 120 µM)	32 µg/mL (≈ 120 µM)	32 µg/mL (≈ 120 µM)	Active	Active	256 µg/mL (≈ 956 µM)
CCCCCCN1C(=O)COc2cc(Cl)ccc21	Active	Active	512 µg/mL (≈ 1910 µM)	32 µg/mL (≈ 120 µM)	Active	32 µg/mL (≈ 120 µM)	Active	Active	32 µg/mL (≈ 120 µM)	32 µg/mL (≈ 120 µM)	16 µg/mL (≈ 59.8 µM)	Active	Active	
O=C1COc2cc(Br)ccc2N1Cc1ccccc1	Active	Active	128 µg/mL (≈ 402 µM)	16 µg/mL (≈ 50.3 µM)	Active	32 µg/mL (≈ 101 µM)	Active	Active	32 µg/mL (≈ 101 µM)	32 µg/mL (≈ 101 µM)	32 µg/mL (≈ 101 µM)	Active	Active	128 µg/mL (≈ 402 µM)
O=C1COc2ccc(Cl)cc2N1Cc1ccccc1	Active	Active	64 µg/mL (≈ 234 µM)	128 µg/mL (≈ 468 µM)	Active	64 µg/mL (≈ 234 µM)	Active	Active	32 µg/mL (≈ 117 µM)	128 µg/mL (≈ 468 µM)	32 µg/mL (≈ 117 µM)	Active	Active	32 µg/mL (≈ 117 µM)
CCCCCCN1C(=O)COc2cc(Br)ccc21	Active	Active	128 µg/mL (≈ 410 µM)	32 µg/mL (≈ 102 µM)	Active	32 µg/mL (≈ 102 µM)	Active	Active	32 µg/mL (≈ 102 µM)	32 µg/mL (≈ 102 µM)	16 µg/mL (≈ 51.2 µM)	Active	Active	
O=C1COc2cc(F)ccc2N1Cc1ccccc1	Active	Active	256 µg/mL (≈ 995 µM)	16 µg/mL (≈ 62.2 µM)	Active	64 µg/mL (≈ 249 µM)	Active	Active	32 µg/mL (≈ 124 µM)	16 µg/mL (≈ 62.2 µM)	32 µg/mL (≈ 124 µM)	Active	Active	128 µg/mL (≈ 498 µM)
CC1(C)S[C@@H]2[C@H](NC(=O)[C@H](N)c3ccccc3)C(=O)N2[C@H]1C(=O)O [AMPICILLIN]	Active	Active		128 µg/mL (≈ 366 µM)	Active	2 µg/mL (≈ 5.72 µM)	Active	Active	1 µg/mL (≈ 2.86 µM)	16 µg/mL (≈ 45.8 µM)	16 µg/mL (≈ 45.8 µM)	Active	Active	
CC(C)(O/N=C(\C(=O)N[C@@H]1C(=O)N2C(C(=O)[O-])=C(C[n+]3ccccc3)CS[C@H]12)c1csc(N)n1)C(=O)O [CEFTAZIDIME]	Active	Active		128 µg/mL (≈ 234 µM)	Active	4 µg/mL (≈ 7.32 µM)	Active	Active	2 µg/mL (≈ 3.66 µM)	4 µg/mL (≈ 7.32 µM)	4 µg/mL (≈ 7.32 µM)	Active	Active	
CN[C@@H]1[C@H](O[C@H]2[C@H](O[C@H]3[C@H](O)[C@@H](O)[C@H](N=C(N)N)[C@@H](O)[C@@H]3N=C(N)N)O[C@@H](C)[C@]2(O)C=O)O[C@@H](CO)[C@H](O)[C@H]1O [STREPTOMYCIN]	Active	Active		2 µg/mL (≈ 3.44 µM)	Active	2 µg/mL (≈ 3.44 µM)	Active	Active	32 µg/mL (≈ 55 µM)	4 µg/mL (≈ 6.88 µM)	4 µg/mL (≈ 6.88 µM)	Active	Active	
O=C1COc2cc(Cl)ccc2N1CCc1ccccc1	Active	Active	128 µg/mL (≈ 445 µM)	16 µg/mL (≈ 55.6 µM)	Active	64 µg/mL (≈ 222 µM)	Active	Active	64 µg/mL (≈ 222 µM)	32 µg/mL (≈ 111 µM)	16 µg/mL (≈ 55.6 µM)	Active	Active	
O=C1COc2cc(Br)ccc2N1C1CCCCC1	Active	Active	256 µg/mL (≈ 825 µM)	16 µg/mL (≈ 51.6 µM)	Active	32 µg/mL (≈ 103 µM)	Active	Active	32 µg/mL (≈ 103 µM)	16 µg/mL (≈ 51.6 µM)	32 µg/mL (≈ 103 µM)	Active	Active	
